pEC50, pIC50: −log10 of the molar value. Where two headings read alike, the source gives them in different places.
Experiments:
[1] = target: T1, full-length beta-Catenin (Uniprot ID P35222) (Homo sapiens, UniProt P35222); assay: Fluorescence polarization IC50 (beta-catenin / 5FAM-TCF4 10-53 competition); type: binding
T1 construct: 10 nM full-length beta-Catenin (Uniprot ID P35222)
T1 sequence (P35222 1-781): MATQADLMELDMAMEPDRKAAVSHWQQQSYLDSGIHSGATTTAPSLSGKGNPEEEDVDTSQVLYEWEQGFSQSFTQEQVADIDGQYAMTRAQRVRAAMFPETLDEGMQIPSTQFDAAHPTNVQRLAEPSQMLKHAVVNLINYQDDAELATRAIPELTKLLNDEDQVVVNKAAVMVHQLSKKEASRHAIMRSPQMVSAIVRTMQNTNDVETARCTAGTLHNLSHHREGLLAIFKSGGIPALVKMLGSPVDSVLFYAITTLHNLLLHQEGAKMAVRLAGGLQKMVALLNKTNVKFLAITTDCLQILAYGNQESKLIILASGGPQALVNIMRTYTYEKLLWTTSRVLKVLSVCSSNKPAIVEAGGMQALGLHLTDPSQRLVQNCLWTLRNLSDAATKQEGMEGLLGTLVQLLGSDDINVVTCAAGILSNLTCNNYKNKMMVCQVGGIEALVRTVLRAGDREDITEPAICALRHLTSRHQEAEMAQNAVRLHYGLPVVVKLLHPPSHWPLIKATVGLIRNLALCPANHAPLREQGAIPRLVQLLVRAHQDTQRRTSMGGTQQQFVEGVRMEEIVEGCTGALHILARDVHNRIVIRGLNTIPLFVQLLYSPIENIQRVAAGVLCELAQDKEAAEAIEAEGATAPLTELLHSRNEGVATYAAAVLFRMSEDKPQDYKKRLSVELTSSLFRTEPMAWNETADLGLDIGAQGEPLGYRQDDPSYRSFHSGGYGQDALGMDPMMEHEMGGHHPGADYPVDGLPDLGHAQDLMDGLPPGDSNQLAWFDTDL

[2] = target: T2, full-length B-Catenin (Uniprot ID P35222) (Homo sapiens, UniProt P35222); assay: Alphascreen binding assay (beta-catenin / biotin-TCF4 10-53)
T2 construct: 65 nM full-length B-Catenin (Uniprot ID P35222)
T2 sequence (P35222 1-781): T1 sequence (P35222 1-781)
Summary of the method: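 AlphaScreen (Ni-chelate beads) competition in 50 mM Tris pH 8.0, 250 mM NaCl with detergents and 0.1% BSA. Peptide titrated 10 uM–5 nM against 65 nM human β-catenin bound to 10 nM biotinylated TCF4 10-53, 15 min then 60 min with beads, both at 20 °C; 1:1 Hill-slope fit.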

CHI Log D procedure = type: physicochemical; settings: for CHI Log D: pH 7.4; for chromatographic logD: pH 7.4, CHI Log D
[3] = Table E2-1, read-out: beta-Catenin FP IC50
[4] = fluorescence polarization, beta-catenin, read-out: FP EC50

CC(=O)N1CCC[C@]12CC=CCCCC1(CCCC=CCCCCCC[C@@](C)(C(=O)N[C@@H](Cc3cccc4ccccc34)C(=O)N[C@@H](Cc3c[nH]c4ccccc34)C(=O)N[C@@H](CCC(N)=O)C(N)=O)NC(=O)[C@H](C(C)C)NC(=O)[C@H](Cc3ccccc3)NC(=O)[C@H](C)NC(=O)[C@H](C)NC(=O)[C@H](CC(=O)O)NC(=O)[C@H](CC(=O)O)NC1=O)NC(=O)[C@H](C)NC(=O)[C@H](CC(=O)O)NC2=O (stereo partly drawn) [I-276, Ac-PL3-Asp-Ala-B5-Asp-Asp-Ala-Ala-Phe-Val-S8-1NapA-Trp-Gln-NH2]
pIC50 [1, 3]: 5.46 | pIC50 [1, 4]: 5.46 | pEC50 [2]: 6.48 | CHI Log D (CHI Log D procedure): 2.207

CC[C@H](C)[C@@H]1NC(=O)[C@H](CC(=O)O)NC(=O)[C@]2(CC=CCCCC3(CCCC=CCCCCCC[C@@](C)(C(=O)N[C@@H](Cc4ccccc4)C(=O)N[C@@H](Cc4c[nH]c5ccccc45)C(N)=O)NC(=O)[C@H](CCC(N)=O)NC(=O)[C@H](Cc4ccccc4)NC(=O)[C@H](C)NC(=O)[C@H](C)NC(=O)[C@H](CCC(=O)O)NC(=O)[C@H](CC(=O)O)NC3=O)NC1=O)CCCN2C(C)=O (stereo partly drawn) [I-191, Ac-PL3-Asp-Ile-B5-Asp-Glu-Ala-Ala-Phe-Gln-S8-Phe-Trp-NH2]
pIC50 [1, 3]: 5.78 | pIC50 [1, 4]: 5.78 | pEC50 [2]: 6.62 | CHI Log D (CHI Log D procedure): 2.412

CC[C@H](C)[C@H](NC(=O)[C@H](CC(=O)O)NC(=O)[C@H](C)NC(C)=O)C(=O)N[C@]1(C)CCN(C)C(=O)OCC=CCCCCC[C@@](C)(C(=O)N[C@@H](Cc2ccccc2)C(=O)N[C@@H](Cc2c[nH]c3ccccc23)C(=O)N[C@@H](C)C(N)=O)NC(=O)[C@H](CCC(N)=O)NC(=O)[C@H](Cc2ccccc2)NC(=O)[C@H](C)NC(=O)[C@H](C)NC(=O)[C@H](CCC(=O)O)NC(=O)[C@H](CC(=O)O)NC1=O [I-153, Ac-Ala-Asp-Ile-RdN-Asp-Glu-Ala-Ala-Phe-Gln-S7-Phe-Trp-Ala-NH2]
pIC50 [1, 3]: 5.67 | pEC50 [2]: 6.82 | chromatographic logD (CHI Log D procedure): 1.32

CC[C@H](C)[C@@H]1NC(=O)[C@H](CC(=O)O)NC(=O)[C@]2(CC=CCCCC3(CCCC=CCCCCCC[C@@](C)(C(=O)N[C@@H](Cc4ccccc4)C(=O)N[C@@H](Cc4c[nH]c5ccccc45)C(=O)N[C@@H](CCC(N)=O)C(N)=O)NC(=O)[C@H](CCC(N)=O)NC(=O)[C@H](Cc4ccccc4)NC(=O)[C@H](C)NC(=O)[C@H](C)NC(=O)[C@H](CCC(=O)O)NC(=O)[C@H](CC(=O)O)NC3=O)NC1=O)CCCN2C(C)=O (stereo partly drawn) [I-181, Ac-PL3-Asp-Ile-B5-Asp-Glu-Ala-Ala-Phe-Gln-S8-Phe-Trp-Gln-NH2]
pIC50 [1, 3]: 6.51 | pIC50 [1, 4]: 6.51 | pEC50 [2]: 7.29 | CHI Log D (CHI Log D procedure): 2.213

CC(=O)N1CCC[C@]12CC=CCCCC1(CCCC=CCCCCCC[C@@](C)(C(=O)N[C@@H](Cc3ccccc3)C(=O)N[C@@H](Cc3c[nH]c4ccccc34)C(=O)N[C@@H](CCC(N)=O)C(N)=O)NC(=O)[C@H](C(C)C)NC(=O)[C@H](Cc3cc(F)cc(F)c3)NC(=O)[C@H](C)NC(=O)[C@H](C)NC(=O)[C@H](CCC(=O)O)NC(=O)[C@H](CC(=O)O)NC1=O)NC(=O)[C@H](C)NC(=O)[C@H](CC(=O)O)NC2=O (stereo partly drawn) [I-219, Ac-PL3-Asp-Ala-B5-Asp-Glu-Ala-Ala-35FF-Val-S8-Phe-Trp-Gln-NH2]
pIC50 [1, 3]: 5.54 | pIC50 [1, 4]: 5.54 | pEC50 [2]: 6.88 | CHI Log D (CHI Log D procedure): 2.074

CC(=O)N1CCC[C@]12CC=CCCCC1(CCCC=CCCCCCC[C@@](C)(C(=O)N[C@@H](Cc3ccccc3)C(=O)N[C@@H](Cc3c[nH]c4ccccc34)C(=O)N[C@@H](CCC(N)=O)C(N)=O)NC(=O)[C@H](C(C)C)NC(=O)[C@H](Cc3ccccc3)NC(=O)[C@H](C)NC(=O)[C@H](C)NC(=O)[C@H](CCCC(=O)O)NC(=O)[C@H](CC(=O)O)NC1=O)NC(=O)[C@H](C)NC(=O)[C@H](CC(=O)O)NC2=O (stereo partly drawn) [I-129, Ac-PL3-Asp-Ala-B5-Asp-Aad-Ala-Ala-Phe-Val-S8-Phe-Trp-Gln-NH2]
pIC50 [1, 3]: 5.70 | pEC50 [2]: 7.08 | chromatographic logD (CHI Log D procedure): 2.11

CC[C@H](C)[C@@H]1NC(=O)[C@H](CC(=O)O)NC(=O)[C@]2(CC=CCCCC3(CCCC=CCOC(=O)N(C)CCC[C@@](C)(C(=O)N[C@@H](Cc4ccccc4)C(=O)N[C@@H](Cc4c[nH]c5ccccc45)C(=O)N[C@@H](Cc4c[nH]cn4)C(N)=O)NC(=O)[C@H](CCC(N)=O)NC(=O)[C@H](Cc4ccccc4)NC(=O)[C@H](C)NC(=O)[C@H](C)NC(=O)[C@H](CC(=O)O)NC(=O)[C@H](CC(=O)O)NC3=O)NC1=O)CCCN2C(C)=O (stereo partly drawn) [I-190, Ac-PL3-Asp-Ile-B5-Asp-Asp-Ala-Ala-Phe-Gln-SeN-Phe-Trp-His-NH2]
pIC50 [1, 3]: 6.16 | pIC50 [1, 4]: 6.16 | pEC50 [2]: 7.03 | CHI Log D (CHI Log D procedure): 1.736

CC[C@H](C)[C@@H]1NC(=O)[C@H](CC(=O)O)NC(=O)[C@]2(CC=CCCCC3(CCCC=CCCCCCC[C@@](C)(C(=O)N[C@@H](Cc4ccccc4)C(=O)N[C@@H](Cc4c[nH]c5ccccc45)C(=O)N[C@@H](Cc4c[nH]cn4)C(N)=O)NC(=O)[C@H](C(C)C)NC(=O)[C@H](Cc4ccccc4)NC(=O)[C@H](C)NC(=O)[C@H](C)NC(=O)[C@H](CCC(=O)O)NC(=O)[C@H](CC(=O)O)NC3=O)NC1=O)CCCN2C(C)=O (stereo partly drawn) [I-176, Ac-PL3-Asp-Ile-B5-Asp-Glu-Ala-Ala-Phe-Val-S8-Phe-Trp-His-NH2]
pIC50 [1, 3]: 5.70 | pIC50 [1, 4]: 5.70 | pEC50 [2]: 6.26 | CHI Log D (CHI Log D procedure): 2.58

CC(=O)N1CCC[C@]12CC=CCCCC1(CCCC=CCCCCCC[C@@](C)(C(=O)N[C@@H](Cc3ccccc3)C(=O)N[C@@H](Cc3c[nH]c4ccccc34)C(=O)N[C@@H](CCC(N)=O)C(N)=O)NC(=O)[C@H](C(C)C)NC(=O)[C@H](Cc3ccccc3)NC(=O)[C@H](C)NC(=O)[C@H](C)NC(=O)[C@H](CCC(N)=O)NC(=O)[C@H](CC(=O)O)NC1=O)NC(=O)[C@H](C)NC(=O)[C@H](CC(=O)O)NC2=O (stereo partly drawn) [I-127, Ac-PL3-Asp-Ala-B5-Asp-Gln-Ala-Ala-Phe-Val-S8-Phe-Trp-Gln-NH2]
pIC50 [1, 3]: 5.32 | pIC50 [1, 4]: 5.32 | pEC50 [2]: 6.26 | CHI Log D (CHI Log D procedure): 2.245

CC(=O)N1CCC[C@]12CC=CCCCC1(CCCC=CCCCCCC[C@@](C)(C(=O)N[C@@H](Cc3ccccc3)C(=O)N[C@@H](Cc3c[nH]c4ccccc34)C(=O)N[C@@H](CCC(N)=O)C(N)=O)NC(=O)[C@H](C(C)C)NC(=O)[C@H](Cc3ccc(Cl)cc3)NC(=O)[C@H](C)NC(=O)[C@H](C)NC(=O)[C@H](CC(=O)O)NC(=O)[C@H](CC(=O)O)NC1=O)NC(=O)[C@H](C)NC(=O)[C@H](CC(=O)O)NC2=O (stereo partly drawn) [I-309, Ac-PL3-Asp-Ala-B5-Asp-Asp-Ala-Ala-4C1F-Val-S8-Phe-Trp-Gln-NH2]
pIC50 [1, 3]: 5.51 | pIC50 [1, 4]: 5.51 | pEC50 [2]: 6.74 | CHI Log D (CHI Log D procedure): 2.05

CC[C@H](C)[C@@H]1NC(=O)[C@H](CC(=O)O)NC(=O)[C@]2(CC=CCCCC3(CCCC=CCCCCCC[C@@](C)(C(=O)N[C@@H](Cc4ccccc4)C(=O)N[C@@H](Cc4c[nH]c5ccccc45)C(=O)N[C@@H](CCC(N)=O)C(N)=O)NC(=O)[C@H](CCC(N)=O)NC(=O)[C@H](Cc4ccccc4)NC(=O)[C@H](C)NC(=O)[C@H](C)NC(=O)[C@H](CCC(=O)O)NC(=O)[C@H](CC(=O)O)NC3=O)NC1=O)CCCN2C(C)=O (stereo partly drawn) [I-180, Ac-PL3-Asp-Ile-B5-Asp-Glu-Ala-Ala-Phe-Gln-S8-Phe-Trp-Gln-NH2]
pIC50 [1, 3]: 7.25 | pEC50 [2]: 7.06 | CHI Log D (CHI Log D procedure): 2.193

CC(=O)N1CCC[C@]12CC=CCCCC1(CCCC=CCCCCCC[C@@](C)(C(=O)N[C@@H](Cc3ccccc3)C(=O)N[C@@H](Cc3csc4ccccc34)C(=O)N[C@@H](C)C(N)=O)NC(=O)[C@H](CCC(N)=O)NC(=O)[C@H](Cc3ccccc3)NC(=O)[C@H](C)NC(=O)[C@H](C)NC(=O)[C@H](CC(=O)O)NC(=O)[C@H](CC(=O)O)NC1=O)NC(=O)[C@H](CCO)NC(=O)[C@H](CC(=O)O)NC2=O (stereo partly drawn) [I-299, Ac-PL3-Asp-Hse-B5-Asp-Asp-Ala-Ala-Phe-Gln-S8-Phe-BztA-Ala-NH2]
pIC50 [1, 3]: 5.89 | pEC50 [2]: 6.72 | chromatographic logD (CHI Log D procedure): 2

CC(=O)N1CCC[C@]12CC=CCCCC1(CCCC=CCCCCCC[C@@](C)(C(=O)N[C@@H](Cc3ccccc3)C(=O)N[C@@H](Cc3csc4ccccc34)C(=O)N[C@@H](CCC(N)=O)C(N)=O)NC(=O)[C@H](C(C)C)NC(=O)[C@H](Cc3ccccc3)NC(=O)[C@H](C)NC(=O)[C@H](C)NC(=O)[C@H](CN(CC(=O)O)CC(F)(F)F)NC(=O)[C@H](CC(=O)O)NC1=O)NC(=O)[C@H](C)NC(=O)[C@H](CC(=O)O)NC2=O (stereo partly drawn) [I-293, Ac-PL3-Asp-Ala-B5-Asp-TfeGA-Ala-Ala-Phe-Val-S8-Phe-BztA-Gln-NH2]
pIC50 [1, 3]: 6.86 | pEC50 [2]: 7.39 | chromatographic logD (CHI Log D procedure): 2.38
